Tests used:
Conditions in all cases: 37 °C
[1] = biological target: Prostaglandin E2 receptor EP2 subtype (Rattus norvegicus, UniProt Q62928); experiment: SEAP Activity Assay
[2] = biological target: T1, Prostaglandin E2 receptor EP4 subtype (Rattus norvegicus, UniProt P43114); experiment: SEAP Activity Assay
[3] = biological target: T1, Prostaglandin E2 receptor EP4 subtype; experiment: cAMP Assay

T1 sequence (P43114 whole entry): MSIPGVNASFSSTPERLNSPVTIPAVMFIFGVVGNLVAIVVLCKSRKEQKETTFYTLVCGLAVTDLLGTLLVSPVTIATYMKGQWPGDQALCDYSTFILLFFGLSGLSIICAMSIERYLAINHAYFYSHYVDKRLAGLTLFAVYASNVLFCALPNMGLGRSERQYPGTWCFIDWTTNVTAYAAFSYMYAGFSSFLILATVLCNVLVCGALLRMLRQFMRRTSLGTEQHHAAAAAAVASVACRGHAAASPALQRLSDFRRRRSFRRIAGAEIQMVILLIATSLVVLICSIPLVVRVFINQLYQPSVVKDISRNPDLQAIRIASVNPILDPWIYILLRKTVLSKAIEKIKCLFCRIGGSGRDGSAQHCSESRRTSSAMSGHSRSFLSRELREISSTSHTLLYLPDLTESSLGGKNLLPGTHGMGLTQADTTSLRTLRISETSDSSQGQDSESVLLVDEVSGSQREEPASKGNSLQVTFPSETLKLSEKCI
Sequence of Prostaglandin E2 receptor EP2 subtype (Q62928 whole entry): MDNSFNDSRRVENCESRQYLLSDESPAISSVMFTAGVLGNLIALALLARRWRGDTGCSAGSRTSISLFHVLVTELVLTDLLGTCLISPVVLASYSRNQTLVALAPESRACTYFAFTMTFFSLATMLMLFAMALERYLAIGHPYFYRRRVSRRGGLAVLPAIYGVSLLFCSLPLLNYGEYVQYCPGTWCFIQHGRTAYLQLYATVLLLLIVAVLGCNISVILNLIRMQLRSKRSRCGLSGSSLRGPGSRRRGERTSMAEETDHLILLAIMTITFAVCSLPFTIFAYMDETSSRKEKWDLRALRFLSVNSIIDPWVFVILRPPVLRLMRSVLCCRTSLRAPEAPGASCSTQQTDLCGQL

EC50 [1] [nM]	EC50 [2] [nM]	EC50 [3] [nM]	SMILES
763	0.11	0.73	CCC#CC[C@H](C)[C@H](O)/C=C/[C@H]1CC(F)(F)C(=O)N1CCCc1ccc(C(=O)O)s1 [US9180116, 24D]
		0.15	C[C@@H](CCc1ccccc1)[C@H](O)/C=C/[C@H]1CC(F)(F)C(=O)N1CCCc1ccc(C(=O)O)s1 [US9180116, 37C]
743		198	C[C@@H](CCc1ccccc1)[C@@H](O)/C=C/[C@H]1CC(F)(F)C(=O)N1CCCc1ccc(C(=O)O)s1 [US9180116, 37D]
